Target: T1, freshly isolated rat hepatocyte suspensions (Rattus norvegicus, UniProt P51639)
T1 sequence (P51639 1-887): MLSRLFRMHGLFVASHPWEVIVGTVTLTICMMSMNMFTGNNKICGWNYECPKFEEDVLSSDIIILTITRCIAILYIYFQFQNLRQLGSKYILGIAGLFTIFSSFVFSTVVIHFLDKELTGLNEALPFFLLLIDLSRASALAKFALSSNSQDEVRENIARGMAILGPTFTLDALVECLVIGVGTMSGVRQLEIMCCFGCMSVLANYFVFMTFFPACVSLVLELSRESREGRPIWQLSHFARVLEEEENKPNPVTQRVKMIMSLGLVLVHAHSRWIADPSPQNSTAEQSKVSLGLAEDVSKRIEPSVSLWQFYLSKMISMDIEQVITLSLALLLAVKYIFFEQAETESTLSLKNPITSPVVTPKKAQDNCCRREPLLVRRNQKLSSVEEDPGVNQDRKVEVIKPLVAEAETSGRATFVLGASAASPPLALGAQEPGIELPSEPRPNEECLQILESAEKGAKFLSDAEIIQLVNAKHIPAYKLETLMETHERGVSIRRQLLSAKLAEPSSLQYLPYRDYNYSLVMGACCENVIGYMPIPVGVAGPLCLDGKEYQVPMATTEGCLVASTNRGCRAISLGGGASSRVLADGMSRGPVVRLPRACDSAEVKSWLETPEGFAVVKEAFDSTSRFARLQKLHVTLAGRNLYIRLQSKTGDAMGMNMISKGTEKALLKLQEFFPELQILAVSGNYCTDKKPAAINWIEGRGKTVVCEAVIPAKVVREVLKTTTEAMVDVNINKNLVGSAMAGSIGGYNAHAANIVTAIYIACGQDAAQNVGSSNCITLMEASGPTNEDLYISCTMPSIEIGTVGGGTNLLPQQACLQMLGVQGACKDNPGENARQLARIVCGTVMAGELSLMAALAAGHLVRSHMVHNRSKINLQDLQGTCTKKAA
Assay: Cholesterol Synthesis in Freshly Isolated Rat Hepatocytes (14C-acetate incorporation into cholesterol)
Assay type: cell-based
Details: inhibition of 14C-acetate incorporation into cholesterol; 2.0 hours at 37° C; read-out: Hepatocytes 150
Description: 2) Cholesterol Synthesis in Freshly Isolated Rat Hepatocytes […]
a. Isolation of Rat Hepatocytes
Sprague Dawley rats (180-220 grams) are anesthetized with Nembutol (50 mg/kg). The abdomen is opened and the first branch of the portal vein is tied closed. Heparin (100-200 units) is injected directly into the abdominal vena cava. A single closing suture is placed on the distal section of the portal vein, and the portal vein is canulated between the suture and the first branching vein. The liver is perfused at a rate of 20 ml/minute with prewarmed (37° C), oxygenated buffer A (HBSS without calcium or magnesium containing 0.5 mM EDTA) after severing the vena cava to allow drainage of the effluent. The liver is additionally perfused with 200 ml of prewarmed buffer B (HBSS containing 0.05% bacterial collagenase). […] Pelleted hepatocytes are washed once in Waymouth's medium, counted and assayed for viability by trypan blue exclusion. […]
Lipids are extracted essentially as described by Bligh, E. G. and W. J. Dyer, Can. […] Plates are scanned and counted using a BioScan automated scanning system. Radiolabel in the cholesterol peak (RF 0.28) is determined and expressed at total counts per peak and as a percent of the label in the total lipid extract. […]
Drug effects (% inhibition of cholesterol synthesis) are determined by comparing % of label in cholesterol for control and drug treated cultures. […]

IC50: 78 nM
Substance: (S)-4-[[[4-(4-Fluorophenyl)-1,2-bis(1-methylethyl)-5-phenyl-1H-pyrrol-3-yl]-ethynyl]hydroxyphosphinyl]-3-hydroxybutanoic acid, dilithium salt [SQ 34,346]

From patent publication EP0463456A1, “Phosphorus-containing HMG-CoA reductase inhibitors, new intermediates and their use” (E.R. SQUIBB & SONS, INC., priority 1990, dated 1992)
